{"source": "paper PMC5394417", "about": "“Investigating the molecular mechanism of positive and negative allosteric modulators in the calcium-sensing receptor dimer” (Scientific Reports, 2017)", "biological_target": "T1, HA-F688A CaSR mutant (Rattus norvegicus, UniProt P48442, F688A)", "T1 construct": "mGluR5 signal peptide (N); expressed in transfected cells; host or cells: HEK293T", "T1 sequence (P48442 20-1079 F688A)": "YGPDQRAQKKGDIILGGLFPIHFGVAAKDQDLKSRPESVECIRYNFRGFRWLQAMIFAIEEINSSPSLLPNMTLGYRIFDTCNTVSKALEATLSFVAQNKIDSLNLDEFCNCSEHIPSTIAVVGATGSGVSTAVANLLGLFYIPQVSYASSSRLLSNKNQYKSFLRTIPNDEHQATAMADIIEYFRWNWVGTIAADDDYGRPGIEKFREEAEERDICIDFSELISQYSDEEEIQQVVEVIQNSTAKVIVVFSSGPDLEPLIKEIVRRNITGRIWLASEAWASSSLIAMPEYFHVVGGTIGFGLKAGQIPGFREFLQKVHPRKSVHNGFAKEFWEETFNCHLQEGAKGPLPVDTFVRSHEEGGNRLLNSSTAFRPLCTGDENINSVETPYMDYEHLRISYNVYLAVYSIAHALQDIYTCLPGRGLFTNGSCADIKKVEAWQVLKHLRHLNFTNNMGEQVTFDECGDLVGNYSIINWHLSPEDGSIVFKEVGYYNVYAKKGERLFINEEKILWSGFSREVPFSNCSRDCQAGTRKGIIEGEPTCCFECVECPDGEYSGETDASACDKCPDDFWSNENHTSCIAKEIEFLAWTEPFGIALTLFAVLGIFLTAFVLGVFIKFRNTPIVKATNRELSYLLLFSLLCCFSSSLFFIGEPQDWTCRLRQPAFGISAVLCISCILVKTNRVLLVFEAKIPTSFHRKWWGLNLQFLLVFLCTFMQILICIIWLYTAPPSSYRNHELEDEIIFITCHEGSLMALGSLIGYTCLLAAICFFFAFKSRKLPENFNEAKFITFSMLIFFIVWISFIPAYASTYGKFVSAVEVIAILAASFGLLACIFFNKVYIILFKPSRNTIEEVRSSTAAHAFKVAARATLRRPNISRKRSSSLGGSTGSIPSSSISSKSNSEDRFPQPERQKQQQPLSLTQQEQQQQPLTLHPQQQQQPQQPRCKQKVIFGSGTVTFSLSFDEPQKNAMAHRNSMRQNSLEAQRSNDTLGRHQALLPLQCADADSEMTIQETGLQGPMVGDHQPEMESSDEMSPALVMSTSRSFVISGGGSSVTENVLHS", "test": "IP-One assay, HEK293T transiently transfected", "assay_type": "cell-based", "data": [{"smiles": "[Ca+2]", "note": "[Ca^2+]", "values": [{"measurement": "EC50", "setting": "Ca^2+ alone", "value": 6.11, "unit": "mM"}, {"measurement": "pEC50 ± S.E.M.", "setting": "Ca^2+ alone", "value": "2.21 ± 0.01"}, {"measurement": "Max ± S.E.M.", "setting": "Ca^2+ alone, normalized to maximum response of WT CaSR", "value": "86 ± 3.1", "unit": "%"}, {"measurement": "EC50", "setting": "Ca^2+ with 1 μM NPS R-568", "value": 2.86, "unit": "mM"}, {"measurement": "pEC50 ± S.E.M.", "setting": "Ca^2+ with 1 μM NPS R-568", "value": "2.54 ± 0.02"}, {"measurement": "Max ± S.E.M.", "setting": "Ca^2+ with 1 μM NPS R-568, normalized to maximum response with Ca^2+ alone for the construct", "value": "110 ± 9", "unit": "%"}, {"measurement": "EC50", "setting": "Ca^2+ with 5 μM NPS 2143", "value": 8.31, "unit": "mM"}, {"measurement": "pEC50 ± S.E.M.", "setting": "Ca^2+ with 5 μM NPS 2143", "value": "2.08 ± 0.01"}, {"measurement": "Max ± S.E.M.", "setting": "Ca^2+ with 5 μM NPS 2143, normalized to maximum response with Ca^2+ alone for the construct", "value": "79 ± 6.9", "unit": "%"}]}]}
